These results are taken from US20130217664A1, “NOVEL COMPOUNDS USEFUL FOR THE TREATMENT OF DEGENERATIVE AND INFLAMMATORY DISEASES” (priority 2012, published 2013).

One assay concerns the target T1, human JAK1 (Homo sapiens, UniProt P23458).
T1 construct: catalytic domain, amino acids 866-1154; catalog number PV4774; purchased Invitrogen PV4774
Description: JAK1 inhibition assay (polyGT substrate / Ulight-JAK1 peptide). The format is biochemical. Conditions: recombinant human JAK1 catalytic domain; polyGT or Ulight-JAK1 peptide assay. The essentials:
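Signal scaled between vehicle and 10 μM staurosporine. Radiometric polyGT reactions ran 45 min at 30 °C, counted after phosphoric-acid stop. Ulight peptide reactions ran 60 min at room temperature, fluorescence read after adding Eu-PT66 detection mix with EDTA.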

The next assay has as its target T2, human JAK3 (Homo sapiens, UniProt P52333).
T2 construct: catalytic domain (amino acids 781-1124; catalog number PV3855); purchased Invitrogen PV3855
Description: JAK3 inhibition assay. It counts as biochemical. Conditions: recombinant human JAK3 catalytic domain; polyGT substrate. A digest of the protocol: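 Radiometric kinase assay: 0.5 ng JAK3 with 2.5 μg polyGT in Tris pH 7.5/MgCl2 buffer, 1 μM ATP plus 0.25 μCi 33P-γ-ATP, 1% DMSO, 45 min at 30 °C, stopped with phosphoric acid.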

In a further assay the target is T3, human TYK2 (Homo sapiens, UniProt P29597).
T3 construct: catalytic domain (amino acids 871-1187; catalog number 08-147); purchased Carna Biosciences 08-147
T3 sequence (P29597 871-1187): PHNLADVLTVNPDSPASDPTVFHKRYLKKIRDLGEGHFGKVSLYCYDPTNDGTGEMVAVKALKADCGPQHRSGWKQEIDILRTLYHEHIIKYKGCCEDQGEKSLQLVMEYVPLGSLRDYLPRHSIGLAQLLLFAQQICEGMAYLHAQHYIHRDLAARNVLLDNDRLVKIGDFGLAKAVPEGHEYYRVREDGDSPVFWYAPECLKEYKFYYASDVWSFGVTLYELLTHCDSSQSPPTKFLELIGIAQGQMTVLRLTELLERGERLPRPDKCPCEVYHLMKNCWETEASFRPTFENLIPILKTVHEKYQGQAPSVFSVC
Description: TYK2 inhibition assay. It counts as biochemical. Particulars: recombinant human TYK2 catalytic domain, polyGT substrate. A digest of the protocol: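 Radiometric kinase reaction run 90 min at 30 °C, stopped with phosphoric acid, washed and scintillation-counted.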

Assay [1] deals with pSTAT1(2)-luciferase reporter in HeLa cells triggered with human OSM. Description: JAK-STAT signalling assay. Conditions: read-out: JAK-STAT IC50. It counts as cell-based. The procedure: JAK-STAT Signalling Assay
HeLa cells were maintained in Dulbecco's Modified Eagle's Medium (DMEM) containing 10% heat inactivated fetal calf serum, 100 U/mL penicillin and 100 μg/mL streptomycin. HeLa cells were used at 70% confluence for transfection. 20,000 cells in 87 μL cell culture medium were transiently transfected with 40 ng pSTAT1(2)-luciferase reporter (Panomics), 8 ng of LacZ reporter as internal control reporter and 52 ng of pBSK using 0.32 μL Jet-PEI (Polyplus) as transfection reagent per well in 96-well plate format. After overnight incubation at 37° C., 5% CO2, transfection medium was removed. 81 μL of DMEM+1.5% heat inactivated fetal calf serum was added. 9 μL compound at 10× concentration was added for 60 min and then 10 μL of human OSM (Peprotech) at 33 ng/mL final concentration.
After overnight incubation at 37° C., 5% CO2 cells were lysed by adding 100 μL lysis buffer/well (PBS, 0.9 mM CaCl2, 0.5 mM MgCl2, 10% Trehalose, 0.05% Tergitol NP9, 0.3% BSA).
40 μL of cell lysate was used to read β-galactosidase activity by adding 180 μL β-Gal solution (30 μL ONPG 4 mg/mL+150 μL β-Galactosidase buffer (0.06 M Na2HPO4, 0.04 M NaH2PO4, 1 mM MgCl2)) for 20 min.
Luciferase activity was measured using 40 μL cell lysate plus 40 μL of Steadylite as described by the manufacturer (Perkin Elmer), on the Envision (Perkin Elmer).
The positive and negative controls were used to calculate z′ and ‘percent inhibition’ (PIN) values.
Percentage inhibition=((fluorescence determined in the presence of vehicle−fluorescence determined for sample with test compound present)divided by(fluorescence determined in the presence of vehicle−fluorescence determined for sample without trigger))*100.
PIN values were plotted for compounds tested in dose-response and EC50 values were derived.

Where [2] appears, read: Homo sapiens, HeLa, HeLa cells, pSTAT1(2)-luciferase reporter, human OSM 33 ng/mL.
Where [3] appears, read: HeLa cells, pSTAT1(2)-luciferase reporter, human OSM 33 ng/mL.

SMILES strings stand for the structures. Where two headings read alike, the source gives them in different places.

T1 sequence (P23458 866-1154): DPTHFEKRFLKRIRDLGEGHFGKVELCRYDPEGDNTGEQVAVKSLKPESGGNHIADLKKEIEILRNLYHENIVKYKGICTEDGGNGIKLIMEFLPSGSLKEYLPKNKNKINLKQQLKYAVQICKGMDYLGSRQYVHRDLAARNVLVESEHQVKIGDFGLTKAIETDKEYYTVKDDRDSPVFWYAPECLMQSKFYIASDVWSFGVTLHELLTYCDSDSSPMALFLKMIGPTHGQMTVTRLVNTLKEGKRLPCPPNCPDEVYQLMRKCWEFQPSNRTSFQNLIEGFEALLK
T2 sequence (P52333 781-1124): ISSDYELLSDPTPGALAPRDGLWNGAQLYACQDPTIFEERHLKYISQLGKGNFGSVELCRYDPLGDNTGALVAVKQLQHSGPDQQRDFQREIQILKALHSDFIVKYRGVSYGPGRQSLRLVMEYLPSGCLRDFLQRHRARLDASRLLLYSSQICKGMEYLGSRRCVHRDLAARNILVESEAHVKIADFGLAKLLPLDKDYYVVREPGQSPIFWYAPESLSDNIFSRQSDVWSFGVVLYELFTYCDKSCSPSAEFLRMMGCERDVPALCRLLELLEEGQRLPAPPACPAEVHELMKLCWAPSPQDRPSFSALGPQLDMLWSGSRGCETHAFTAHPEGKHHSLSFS

Turning to `CCc1cc(-c2cccc(C#N)c2)ccc1N(C)c1cc2c(cn1)ncn2C` [Compound 163, 3′-ethyl-4′-(methyl(1-methyl-1H-imidazo[4,5-c]pyridin-6-yl)amino)biphenyl-3-carbonitrile], the IC50 on human JAK1 lay in the range of 0.01 to 100 nM; on human JAK3, 501 to 1000 nM; at human TYK2, 501 to 1000 nM; in assay [1] (setting [2]), 501 to 1000 nM.

Consider `CCc1cc(-c2cnc(N(C)C)nc2)ccc1N(C)c1cc2c(cn1)ncn2C` [Compound 129, N-(4-(2-(dimethylamino)pyrimidin-5-yl)-2-ethylphenyl)-N,1-dimethyl-1H-imidazo[4,5-c]pyridin-6-amine], for which the IC50 on human JAK1 was 0.01 to 100 nM; on human JAK3, > 1000 nM; at human TYK2, 101 to 500 nM; in assay [1] (setting [2]), > 1000 nM.

Regarding `CCc1cc(CNC(=O)CC#N)ccc1N(C)c1cc2c(cn1)ncn2C` [Compound 255, 2-cyano-N-(3-ethyl-4-(methyl(1-methyl-1H-imidazo[4,5-c]pyridin-6-yl)amino)benzyl)acetamide], the IC50 at human JAK1 was 0.01 to 100 nM; on human JAK3, 101 to 500 nM; on human TYK2, 101 to 500 nM; in assay [1] (setting [2]), > 1000 nM.

For the compound `CCc1cc(-c2cnn(Cc3cccc(OC)c3)c2)ccc1N(C)c1cc2c(cn1)ncn2C` [Compound 236, N-(2-ethyl-4-(1-(3-methoxybenzyl)-1H-pyrazol-4-yl)phenyl)-N,1-dimethyl-1H-imidazo[4,5-c]pyridin-6-amine], the IC50 on human JAK1 fell in the range of 0.01 to 100 nM; on human JAK3, 0.01 to 100 nM; on human TYK2, 0.01 to 100 nM; in assay [1] (setting [2]) it was 1 to 500 nM.

As for `COc1cc(-c2cnn(C)c2)ncc1N(C)c1cc2c(cn1)ncn2C` [Compound 263, N-(4-methoxy-6-(1-methyl-1H-pyrazol-4-yl)pyridin-3-yl)-N,1-dimethyl-1H-imidazo[4,5-c]pyridin-6-amine], the IC50 is 501 to 1000 nM at human JAK1, > 1000 nM at human JAK3, > 1000 nM at human TYK2 and > 1000 nM in assay [1] (setting [3]).

On to `CCc1cc(C(O)C(F)(F)F)ccc1N(C)c1cc2c(cn1)ncn2C` (stereo not drawn) [Compound 159, 1-(3-Ethyl-4-(methyl(1-methyl-1H-imidazo[4,5-c]pyridin-6-yl)amino)phenyl)-2,2,2-trifluoroethanol], for which the IC50 at human JAK1 was 0.01 to 100 nM; on human JAK3, 501 to 1000 nM; on human TYK2, 101 to 500 nM; in assay [1] (setting [2]) it was > 1000 nM.

On to `CCc1cc(CN2CCN(C)CC2)ccc1N(C)c1cc2c(cn1)ncn2C` [Compound 141, N-(2-ethyl-4-((4-methylpiperazin-1-yl)methyl)phenyl)-N,1-dimethyl-1H-imidazo[4,5-c]pyridin-6-amine], for which the IC50 on human JAK1 was 101 to 500 nM; on human JAK3, > 1000 nM; at human TYK2 it was > 1000 nM; in assay [1] (setting [2]), > 1000 nM.

For `CCc1cc(-c2cnn(CC)c2)ccc1N(C)c1cc2c(cn1)ncn2C` [Compound 241, N-(2-ethyl-4-(1-ethyl-1H-pyrazol-4-yl)phenyl)-N,1-dimethyl-1H-imidazo[4,5-c]pyridin-6-amine], the IC50 at human JAK1 was 0.01 to 100 nM; on human JAK3, 101 to 500 nM; at human TYK2, 101 to 500 nM; in assay [1] (setting [2]) it was 1 to 500 nM.

Turning to `CCc1cc(C2=CCN(C(=O)N3CCC3)CC2)ccc1N(C)c1cc2c(cn1)ncn2C` [Compound 205, azetidin-1-yl(4-(3-ethyl-4-(methyl(1-methyl-1H-imidazo[4,5-c]pyridin-6-yl)amino)phenyl)-5,6-dihydropyridin-1(2H)-yl)methanone], the IC50 on human JAK1 is 0.01 to 100 nM; on human JAK3, 101 to 500 nM; at human TYK2, 0.01 to 100 nM; in assay [1] (setting [2]) it was 1 to 500 nM.

`CCc1cc(C2=CCN(C(C)=O)CC2)ccc1N(C)c1cc2c(cn1)ncn2C` [Compound 168, 1-(4-(3-ethyl-4-(methyl(1-methyl-1H-imidazo[4,5-c]pyridin-6-yl)amino)phenyl)-5,6-dihydropyridin-1(2H)-yl)ethanone]: the concentration for half-maximal inhibition (IC50) on human JAK1 fell in the range of 0.01 to 100 nM; at human JAK3, 101 to 500 nM; at human TYK2 it was 0.01 to 100 nM; in assay [1] (setting [2]), 1 to 500 nM.

Take `CCc1cc(-c2cnn(CC3(C)COC3)c2)ccc1N(C)c1cc2c(cn1)ncn2C` [Compound 242, N-(2-ethyl-4-(1-((3-methyloxetan-3-yl)methyl)-1H-pyrazol-4-yl)phenyl)-N,1-dimethyl-1H-imidazo[4,5-c]pyridin-6-amine]: the IC50 on human JAK1 is 0.01 to 100 nM; at human JAK3, 501 to 1000 nM; at human TYK2, 101 to 500 nM; in assay [1] (setting [3]), > 1000 nM.

On to `CCc1cc(-c2cnn(Cc3ccc(OC)cc3)c2)ccc1N(C)c1cc2c(cn1)ncn2C` [Compound 208, N-(2-ethyl-4-(1-(4-methoxybenzyl)-1H-pyrazol-4-yl)phenyl)-N,1-dimethyl-1H-imidazo[4,5-c]pyridin-6-amine], for which the IC50 at human JAK1 is 0.01 to 100 nM; at human JAK3, 101 to 500 nM; on human TYK2, 0.01 to 100 nM; in assay [1] (setting [2]) it was 1 to 500 nM.

In the case of `CCc1cc(-c2cncc(C#N)c2)ccc1N(C)c1cc2c(cn1)ncn2C` [Compound 189, 5-(3-ethyl-4-(methyl(1-methyl-1H-imidazo[4,5-c]pyridin-6-yl)amino)phenyl)nicotino-nitrile], the half-inhibitory concentration (IC50) is 0.01 to 100 nM at human JAK1, > 1000 nM at human JAK3, 101 to 500 nM at human TYK2 and > 1000 nM in assay [1] (setting [2]).

In the case of `CCc1cc(OCC#N)ccc1N(C)c1cc2c(cn1)ncn2C` [Compound 295, 2-(3-ethyl-4-(methyl(1-methyl-1H-imidazo[4,5-c]pyridin-6-yl)amino)phenoxy)acetonitrile], the IC50 at human JAK1 fell in the range of 0.01 to 100 nM; at human JAK3, 101 to 500 nM; on human TYK2 it was 0.01 to 100 nM; in assay [1] (Homo sapiens, HeLa), 1 to 500 nM.

As to `CCc1cc(-c2cnc(OCC#N)nc2)ccc1N(C)c1cc2c(cn1)ncn2C` [Compound 217, 2-(5-(3-ethyl-4-(methyl(1-methyl-1H-imidazo[4,5-c]pyridin-6-yl)amino)phenyl)pyrimidin-2-yloxy)acetonitrile], the IC50 on human JAK1 is 0.01 to 100 nM; at human JAK3 it was > 1000 nM; on human TYK2, 101 to 500 nM; in assay [1] (setting [2]) it was > 1000 nM.

For the compound `CCc1cc(-c2nc(C)no2)ccc1N(C)c1cc2c(cn1)ncn2C` [Compound 178, N-(2-Ethyl-4-(3-methyl-1,2,4-oxadiazol-5-yl)phenyl)-N,1-dimethyl-1H-imidazo[4,5-d]pyridin-6-amine], the IC50 on human JAK1 is 0.01 to 100 nM; on human JAK3, > 1000 nM; at human TYK2, 101 to 500 nM; in assay [1] (setting [2]), 501 to 1000 nM.

Take `CCc1cc(CNC(=O)OC(C)(C)C)ccc1N(C)c1cc2c(cn1)ncn2C` [Compound 252, tert-Butyl 3-ethyl-4-(methyl(1-methyl-1H-imidazo[4,5-c]pyridin-6-yl)amino)benzylcarbamate]: the IC50 in assay [1] (setting [2]) was > 1000 nM.

With `CCc1cc(-c2nnc(N)s2)ccc1N(C)c1cc2c(cn1)ncn2C` [Compound 193, 5-(3-Ethyl-4-(methyl(1-methyl-1H-imidazo[4,5-c]pyridin-6-yl)amino)phenyl)-1,3,4-thiadiazol-2-amine], the IC50 in assay [1] (setting [2]) was > 1000 nM.
